# Source: paper PMC4499255, “Monitoring Conformational Changes in the NDM-1 Metallo-β-lactamase by ^19F NMR Spectroscopy” (Angewandte Chemie (International Ed. in English), 2014)
# Like-named read-outs stand apart in the source and are kept apart here.
# Assays:
# [1] = molecular target: NDM-1* (BFA-labeled M67C NDM-1) (Klebsiella pneumoniae, UniProt C7C422, M67C); assay type: biochemical; settings: labeled NDM-1*; for Km: substrate affinity
# Description: (§1) buffer was prepared freshly prior to the reaction.
# Kinetic and inhibition analyses were performed as described1. K measurements were performed
# (§2) nM NDM-1* for nitrocefin measurements. […]
# NDM-1 [2] = molecular target: T1, NDM-1 (Klebsiella pneumoniae, UniProt C7C422); settings: unlabeled NDM-1; cited from earlier work
# T1 sequence (C7C422 37-270 limits assumed): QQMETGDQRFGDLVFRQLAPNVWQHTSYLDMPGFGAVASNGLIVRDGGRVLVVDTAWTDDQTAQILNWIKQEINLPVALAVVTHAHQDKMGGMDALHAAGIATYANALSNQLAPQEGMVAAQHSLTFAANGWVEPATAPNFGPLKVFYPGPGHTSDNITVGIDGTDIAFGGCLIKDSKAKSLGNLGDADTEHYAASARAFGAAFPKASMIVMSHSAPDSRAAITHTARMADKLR
# [3] = molecular target: di-ZnII-NDM-1* (BFA-labeled M67C NDM-1) (Klebsiella pneumoniae, UniProt C7C422, M67C); test: 19F NMR ligand titration / binding assay
# Chain of di-ZnII-NDM-1* (BFA-labeled M67C NDM-1) (C7C422 37-270 M67C): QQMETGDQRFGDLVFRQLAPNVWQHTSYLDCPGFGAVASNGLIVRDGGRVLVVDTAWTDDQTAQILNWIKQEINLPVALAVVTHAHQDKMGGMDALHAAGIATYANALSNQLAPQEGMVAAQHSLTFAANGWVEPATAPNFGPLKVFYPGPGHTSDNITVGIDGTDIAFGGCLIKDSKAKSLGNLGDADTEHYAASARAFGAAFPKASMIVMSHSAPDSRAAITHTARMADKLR
# Description: To calculate the molar fraction of protein–ligand complex, Equation (1) was used: [drawing 1] (1) where [P0] is the total protein concentration and [L0] is the total ligand concentration titrated into solution. […]
# as §1
# Kinetic and inhibition analyses were performed as described1. K measurements were performed […]
# as §2
# with rf field of 3.125 kHz.
# 768 scans and a recovery delay of 1s. Data were processed with 3 Hz Lorentzian line broadening […]
# Trifluoroacetic acid (TFA, 50 µM) […]
# was used as an internal standard. All inhibitor incubations were compared to appropriate NDM-1* […]
# A DMSO titration curve was used for reference
# Metal binding experiments
# NDM-1 [4] = molecular target: T1, NDM-1
# [5] = tested on: C[C@@H](O)[C@H]1C(=O)N2C(C(=O)O)=C(S[C@@H]3CN[C@H](C(=O)N(C)C)C3)[C@H](C)[C@H]12; test: purified protein, by the assay type; settings: other: unlabeled NDM-1; substrate affinity; 25.0 °C
# Description: We then investigated the kinetic properties of NDM-1* compared to unlabeled NDM-1.
# using 0.5 nM NDM-1 and 1 nM NDM-1* for meropenem measurements and 0.25 nM NDM-1 and 2
# Chain of NDM-1* (BFA-labeled M67C NDM-1) (C7C422 37-270 M67C): as above
compound,measurement,setting,value
C[C@@H](O)[C@H]1C(=O)N2C(C(=O)O)=C(S[C@@H]3CN[C@H](C(=O)N(C)C)C3)[C@H](C)[C@H]12 [Meropenem],kcat,[1],67.8 ± 4.3 s⁻¹
same,Km,[1],54.8 ± 9.4 µM
O=C(Cc1cccs1)N[C@@H]1C(=O)N2C(C(=O)O)=C(/C=C/c3ccc([N+](=O)[O-])cc3[N+](=O)[O-])CS[C@H]12 [Nitrocefin],kcat,[1],22.9 ± 0.6 s⁻¹
same,Km,[1],6.2 ± 0.7 µM
same,kcat,NDM-1 [2],25.3±1.6^[a] s^−1
C[C@H]1[C@H](NC(=O)/C(=N\OC(C)(C)C(=O)O)c2csc(N)n2)C(=O)N1S(=O)(=O)O [aztreonam],19F chemical shift change upon addition of ligand (binding),[3]; ligand 2.5 mM,no ^19F chemical shift change was observed
same,reported inhibition of NDM-1,NDM-1 [4]; ref 9b; cited from earlier work,not to inhibit NDM-1
"O=C(N[C@@H](Cc1c[nH]c2ccccc12)C(=O)O)c1nc(Cl)c2ccccc2c1O [compound 3, (S)-2-(1-chloro-4-hydroxyisoquinoline-3-carboxamido)-3-(1H-indol-3-yl)propanoic acid]",Kd,[3],131 µM
same,IC50,NDM-1 [4]; read-out: reported IC50; NDM-1; cited from earlier work,61 µM
"O=C(N[C@H](Cc1c[nH]c2ccccc12)C(=O)O)c1nc(Cl)c2ccccc2c1O [compound 4, (R)-2-(1-chloro-4-hydroxyisoquinoline-3-carboxamido)-3-(1H-indol-3-yl)propanoic acid]",IC50,NDM-1 [4]; NDM-1; read-out: reported IC50; cited from earlier work,47 µM
NDM-1 (Klebsiella pneumoniae),Km,[5],76.6 ± 4.4 µM
same,kcat,[5],235 ± 5.6 s⁻¹
